SMILES strings stand for the structures.

The assay concerns the target T1, LCAT (Homo sapiens, UniProt P04180).
T1 construct: The obtained fraction was dialyzed against phosphate-buffered saline (pH 7.4) and used as an enzyme source and an acceptor for LCAT; from tissue; host or cells: HDL3 fraction (1.125<specific gravity<1.210 g/mL) of plasma from a healthy person
T1 sequence (P04180 25-440): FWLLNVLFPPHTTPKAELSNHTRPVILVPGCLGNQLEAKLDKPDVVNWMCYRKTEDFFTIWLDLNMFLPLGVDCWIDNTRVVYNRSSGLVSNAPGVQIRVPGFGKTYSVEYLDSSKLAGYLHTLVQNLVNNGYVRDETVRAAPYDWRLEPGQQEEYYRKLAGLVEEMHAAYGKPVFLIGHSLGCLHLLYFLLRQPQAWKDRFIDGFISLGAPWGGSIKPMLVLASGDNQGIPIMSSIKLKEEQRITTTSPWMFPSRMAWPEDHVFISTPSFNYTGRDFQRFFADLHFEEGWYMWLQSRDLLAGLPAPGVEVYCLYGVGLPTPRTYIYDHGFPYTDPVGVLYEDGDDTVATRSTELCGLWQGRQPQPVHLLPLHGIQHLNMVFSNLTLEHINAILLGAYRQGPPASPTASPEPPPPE
Briefly: LCAT Activity Measurement (In Vitro). The class given is biochemical. The settings on record: EC50 of LCAT activation; HDL3 fraction from plasma of a healthy person as enzyme source and acceptor; [14C]cholesterol; 37° C., approximately 16 hours. Here is the method:
A fraction composed of HDL3 (1.125<specific gravity<1.210 g/mL) was obtained from the plasma of a healthy person by density gradient centrifugation. The obtained fraction was dialyzed against phosphate-buffered saline (pH 7.4) and used as an enzyme source and an acceptor for LCAT. Each test drug was prepared by dissolution in dimethyl sulfoxide. [14C]Cholesterol containing DTNB (Ellman's reagent, final concentration: 0.5 mM), mercaptoethanol (final concentration: 12.5 mM), and 0.6% bovine serum albumin was added to phosphate-buffered saline (pH 7.4) containing 1 mg/mL HDL3, and the test drug was further added thereto at varying concentrations to adjust the whole amount to 80 μL. This mixture was incubated at 37° C. for approximately 16 hours. Then, a mixed solution of hexane and isopropanol (mixing ratio=3:2) was added thereto to stop the reaction. After stirring, the hexane layer was collected, and this layer was evaporated to dryness. A chloroform solution (concentration: 10 mg/mL) was added thereto, and the mixture was spotted onto a thin-layer silica gel plate and developed using a mixed solution of hexane, diethyl ether, and ethyl acetate (mixing ratio=85:15:2). The radioactivity of a portion corresponding to cholesterol oleate was measured using an imaging analyzer BAS-2500 (manufactured by Fujifilm Corp.). A sample non-supplemented with the test drug was similarly treated and assayed. The EC50 value of LCAT activation was calculated according to the expression given below relative to LCAT activity in the sample non-supplemented with the test drug.
wherein X represents the logarithm of the concentration of the test drug;
Y represents the responsiveness (LCAT activity) of the test drug;
Top represents the maximum value (maximum plateau);
Bottom represents the minimum value (minimum plateau); and
EC50 represents the 50% effective concentration.
In the case of `O=C1CC(O)(C(F)(F)F)c2c(C3CCN(c4ncc(-c5ccccc5)s4)CC3)n[nH]c2N1` (centres unmarked) [Example 89, 4-Hydroxy-3-[1-(5-phenyl-1,3-thiazol-2-yl)piperidin-4-yl]-4-(trifluoromethyl)-1,4,5,7-tetrahydro-6H-pyrazolo[3,4-b]pyridin-6-one], the response was half-maximal at 110 nM (EC50).
The compound `O=C1CC(O)(C(F)(F)F)c2c(C3CCN(c4cccnc4)CC3)n[nH]c2N1` (centres unmarked) [Example 27, 4-Hydroxy-3-[1-(pyridin-3-yl)piperidin-4-yl]-4-(trifluoromethyl)-1,4,5,7-tetrahydro-6H-pyrazolo[3,4-b]pyridin-6-one] displayed an EC50 of 2410 nM.
The figure for `O=C1CC(O)(C(F)(F)F)c2c(C3CCN(c4cc(I)c(C(F)(F)F)cn4)CC3)n[nH]c2N1` (single isomer, unassigned) [Compound 103-1, 4-hydroxy-3-{1-[4-iodo-5-(trifluoromethyl)pyridin-2-yl]piperidin-4-yl}-4-(trifluoromethyl)-1,4,5,7-tetrahydro-6H-pyrazolo[3,4-b]pyridin-6-one] is 27 nM; for `O=C1CC(O)(C(F)(F)F)c2c(C3CCN(c4nc(Cl)ccc4C(F)(F)F)CC3)n[nH]c2N1` (centres unmarked) [Compound 98-b, 3-{1-[6-chloro-3-(trifluoromethyl)pyridin-2-yl]piperidin-4-yl}-4-hydroxy-4-(trifluoromethyl)-1,4,5,7-tetrahydro-6H-pyrazolo[3,4-b]pyridin-6-one] it is 510 nM; for `O=C1CC(O)(C(F)(F)F)c2c(C3CCN(c4cc(C(F)(F)F)ncn4)CC3)n[nH]c2N1` (centres unmarked) [Example 45, 4-Hydroxy-4-(trifluoromethyl)-3-{1-[6-(trifluoromethyl)pyrimidin-4-yl]piperidin-4-yl}-1,4,5,7-tetrahydro-6H-pyrazolo[3,4-b]pyridin-6-one] it is 140 nM.
In turn, `N#Cc1ccnc(N2CCC(c3n[nH]c4c3C(O)(C(F)(F)F)CC(=O)N4)CC2)c1` (centres unmarked) [Example 33, 2-{4-[4-Hydroxy-6-oxo-4-(trifluoromethyl)-4,5,6,7-tetrahydro-1H-pyrazolo[3,4-b]pyridin-3-yl]piperidin-1-yl}pyridine-4-carbonitrile] returned a 50% effective concentration (EC50) of 56 nM.
In the case of `O=C1CC(O)(C(F)(F)F)c2c(C3CCN(c4ccc(OC(F)(F)F)cn4)CC3)n[nH]c2N1` (centres unmarked) [Example 76, 4-Hydroxy-3-{1-[5-(trifluoromethoxy)pyridin-2-yl]piperidin-4-yl}-4-(trifluoromethyl)-1,4,5,7-tetrahydro-6H-pyrazolo[3,4-b]pyridin-6-one], the EC50 was 18 nM.
The figure for `O=C1CC(O)(C(F)(F)F)c2c(C3CCN(c4ccc(OC5CCC5)nc4)CC3)n[nH]c2N1` (centres unmarked) [Example 61, 3-{1-[6-(Cyclobutoxy)pyridin-3-yl]piperidin-4-yl}-4-hydroxy-4-(trifluoromethyl)-1,4,5,7-tetrahydro-6H-pyrazolo[3,4-b]pyridin-6-one] is 100 nM; for `O=C1CC(O)(C(F)(F)F)c2c(C3CCN(c4ccc(OC(F)F)cc4)CC3)n[nH]c2N1` (single isomer, unassigned; (+)) [Compound 56-2, (+)-3-{1-[4-(difluoromethoxy)phenyl]piperidin-4-yl}-4-hydroxy-4-(trifluoromethyl)-1,4,5,7-tetrahydro-6H-pyrazolo[3,4-b]pyridin-6-one] it is 980 nM; for `O=C1CC(O)(C(F)(F)F)c2c(C3CCN(c4ccc(OC(F)F)nc4)CC3)n[nH]c2N1` (centres unmarked) [Example 54, 3-{1-[6-(Difluoromethoxy)pyridin-3-yl]piperidin-4-yl}-4-hydroxy-4-(trifluoromethyl)-1,4,5,7-tetrahydro-6H-pyrazolo[3,4-b]pyridin-6-one] it is 70 nM.
`CN(C)C(=O)c1nc(N2CCC(c3n[nH]c4c3C(O)(C(F)(F)F)CC(=O)N4)CC2)ccc1C(F)(F)F` (centres unmarked) [Example 83, 6-{4-[4-Hydroxy-6-oxo-4-(trifluoromethyl)-4,5,6,7-tetrahydro-1H-pyrazolo[3,4-b]pyridin-3-yl]piperidin-1-yl}-N,N-dimethyl-3-(trifluoromethyl)pyridine-2-carboxamide] displayed an EC50 of 420 nM.
For the compound `CCOC(=O)c1oc(N2CCC(c3n[nH]c4c3C(O)(C(F)(F)F)CC(=O)N4)CC2)nc1C(F)(F)F` (centres unmarked) [Example 91, Ethyl 2-{4-[4-hydroxy-6-oxo-4-(trifluoromethyl)-4,5,6,7-tetrahydro-1H-pyrazolo[3,4-b]pyridin-3-yl]piperidin-1-yl}-4-(trifluoromethyl)-1,3-oxazole-5-carboxylate], the half-maximal effective concentration (EC50) is 77 nM.
In turn, `N#Cc1cnc(N2CCC(c3n[nH]c4c3C(O)(C(F)(F)F)CC(=O)N4)CC2)cn1` (centres unmarked) [Example 78, 5-{4-[4-Hydroxy-6-oxo-4-(trifluoromethyl)-4,5,6,7-tetrahydro-1H-pyrazolo[3,4-b]pyridin-3-yl]piperidin-1-yl}pyrazine-2-carbonitrile] showed a concentration giving a half-maximal response (EC50) of 220 nM.
As to `O=C1CC(O)(C(F)(F)F)c2c(C3CCN(c4cnc(C5CC5)nc4)CC3)n[nH]c2N1` (centres unmarked) [Example 66, 3-[1-(2-Cyclopropylpyrimidin-5-yl)piperidin-4-yl]-4-hydroxy-4-(trifluoromethyl)-1,4,5,7-tetrahydro-6H-pyrazolo[3,4-b]pyridin-6-one], the 50% effective concentration (EC50) was 68 nM.
The figure for `Cc1cccnc1N1CCC(c2n[nH]c3c2C(O)(C(F)(F)F)CC(=O)N3)CC1` (centres unmarked) [Example 6, 4-Hydroxy-3-[1-(3-methylpyridin-2-yl)piperidin-4-yl]-4-(trifluoromethyl)-1,4,5,7-tetrahydro-6H-pyrazolo[3,4-b]pyridin-6-one] is 1260 nM.
On to `COc1cncc(N2CCC(c3n[nH]c4c3C(O)(C(F)(F)F)CC(=O)N4)CC2)c1` (centres unmarked) [Example 40, 4-Hydroxy-3-[1-(5-methoxypyridin-3-yl)piperidin-4-yl]-4-(trifluoromethyl)-1,4,5,7-tetrahydro-6H-pyrazolo[3,4-b]pyridin-6-one], for which the EC50 came out at 1710 nM.
`O=C1CC(O)(C(F)(F)F)c2c(C3CCN(c4ncc(C(F)(F)F)cn4)CC3)n[nH]c2N1` (centres unmarked) [Example 44, 4-Hydroxy-4-(trifluoromethyl)-3-{1-[5-(trifluoromethyl)pyrimidin-2-yl]piperidin-4-yl}-1,4,5,7-tetrahydro-6H-pyrazolo[3,4-b]pyridin-6-one] returned an EC50 of 360 nM.
Under `Cc1cc(N2CCC(c3n[nH]c4c3C(O)(C(F)(F)F)CC(=O)N4)CC2)ncc1C#N` (centres unmarked) [Example 42, 6-{4-[4-Hydroxy-6-oxo-4-(trifluoromethyl)-4,5,6,7-tetrahydro-1H-pyrazolo[3,4-b]pyridin-3-yl]piperidin-1-yl}-4-methylpyridine-3-carbonitrile] stands 140 nM; under `Cc1nc(N2CCC(c3n[nH]c4c3C(O)(C(F)(F)F)CC(=O)N4)CC2)cc(C(F)(F)F)n1` (centres unmarked) [Example 87, 4-Hydroxy-3-{1-[2-methyl-6-(trifluoromethyl)pyrimidin-4-yl]piperidin-4-yl}-4-(trifluoromethyl)-1,4,5,7-tetrahydro-6H-pyrazolo[3,4-b]pyridin-6-one], 300 nM; under `CC(C)Oc1ccc(N2CCC(c3n[nH]c4c3C(O)(C(F)(F)F)CC(=O)N4)CC2)cn1` (centres unmarked) [Example 57, 4-Hydroxy-3-{1-[6-(propan-2-yloxy)pyridin-3-yl]piperidin-4-yl}-4-(trifluoromethyl)-1,4,5,7-tetrahydro-6H-pyrazolo[3,4-b]pyridin-6-one], 100 nM.
The figure for `N#Cc1cccc(N2CCC(c3n[nH]c4c3C(O)(C(F)(F)F)CC(=O)N4)CC2)c1` (centres unmarked) [Example 23, 3-{4-[4-Hydroxy-6-oxo-4-(trifluoromethyl)-4,5,6,7-tetrahydro-1H-pyrazolo[3,4-b]pyridin-3-yl]piperidin-1-yl}benzonitrile] is 120 nM; for `Cc1cncc(N2CCC(c3n[nH]c4c3C(O)(C(F)(F)F)CC(=O)N4)CC2)n1` (centres unmarked) [Example 26, 4-Hydroxy-3-[1-(6-methylpyrazin-2-yl)piperidin-4-yl]-4-(trifluoromethyl)-1,4,5,7-tetrahydro-6H-pyrazolo[3,4-b]pyridin-6-one] it is 260 nM.
Under `O=C1CC(O)(C(F)(F)F)c2c(C3CCN(c4ccc(OC(F)F)cn4)CC3)n[nH]c2N1` (centres unmarked) [Example 51, 3-{1-[5-(Difluoromethoxy)pyridin-2-yl]piperidin-4-yl}-4-hydroxy-4-(trifluoromethyl)-1,4,5,7-tetrahydro-6H-pyrazolo[3,4-b]pyridin-6-one] stands 81 nM.

What is called EC50 is the concentration that produces a half-maximal response. A low value points to greater potency.

The values are drawn from patent US9150575B2, “Piperidinylpyrazolopyridine derivative” (Daiichi Sankyo Company, Limited, priority 2012, dated 2015).
